Assay results taken from ChEMBL document CHEMBL1141075, “4-Oxo-4,7-dihydrothieno[2,3-b]pyridines as non-nucleoside inhibitors of human cytomegalovirus and related herpesvirus polymerases” (J Med Chem, 2005).
pIC50: −log10 of the molar value. Values belong to the molecule of their own block, whether it stands above or below them.

Legend:
[1] = molecular target: T1, DNA polymerase catalytic subunit (Human cytomegalovirus (strain AD169) (HHV-5) (Human herpesvirus 5), UniProt P08546); experiment: Inhibition of human cytomegalovirus DNA polymerase (95 uL) activity in a solution containing […] HEPES (pH 7.5), incubation for 12 minutes at 26 degrees C; parameters: species or system Human betaherpesvirus 5
T1 sequence (P08546 whole entry): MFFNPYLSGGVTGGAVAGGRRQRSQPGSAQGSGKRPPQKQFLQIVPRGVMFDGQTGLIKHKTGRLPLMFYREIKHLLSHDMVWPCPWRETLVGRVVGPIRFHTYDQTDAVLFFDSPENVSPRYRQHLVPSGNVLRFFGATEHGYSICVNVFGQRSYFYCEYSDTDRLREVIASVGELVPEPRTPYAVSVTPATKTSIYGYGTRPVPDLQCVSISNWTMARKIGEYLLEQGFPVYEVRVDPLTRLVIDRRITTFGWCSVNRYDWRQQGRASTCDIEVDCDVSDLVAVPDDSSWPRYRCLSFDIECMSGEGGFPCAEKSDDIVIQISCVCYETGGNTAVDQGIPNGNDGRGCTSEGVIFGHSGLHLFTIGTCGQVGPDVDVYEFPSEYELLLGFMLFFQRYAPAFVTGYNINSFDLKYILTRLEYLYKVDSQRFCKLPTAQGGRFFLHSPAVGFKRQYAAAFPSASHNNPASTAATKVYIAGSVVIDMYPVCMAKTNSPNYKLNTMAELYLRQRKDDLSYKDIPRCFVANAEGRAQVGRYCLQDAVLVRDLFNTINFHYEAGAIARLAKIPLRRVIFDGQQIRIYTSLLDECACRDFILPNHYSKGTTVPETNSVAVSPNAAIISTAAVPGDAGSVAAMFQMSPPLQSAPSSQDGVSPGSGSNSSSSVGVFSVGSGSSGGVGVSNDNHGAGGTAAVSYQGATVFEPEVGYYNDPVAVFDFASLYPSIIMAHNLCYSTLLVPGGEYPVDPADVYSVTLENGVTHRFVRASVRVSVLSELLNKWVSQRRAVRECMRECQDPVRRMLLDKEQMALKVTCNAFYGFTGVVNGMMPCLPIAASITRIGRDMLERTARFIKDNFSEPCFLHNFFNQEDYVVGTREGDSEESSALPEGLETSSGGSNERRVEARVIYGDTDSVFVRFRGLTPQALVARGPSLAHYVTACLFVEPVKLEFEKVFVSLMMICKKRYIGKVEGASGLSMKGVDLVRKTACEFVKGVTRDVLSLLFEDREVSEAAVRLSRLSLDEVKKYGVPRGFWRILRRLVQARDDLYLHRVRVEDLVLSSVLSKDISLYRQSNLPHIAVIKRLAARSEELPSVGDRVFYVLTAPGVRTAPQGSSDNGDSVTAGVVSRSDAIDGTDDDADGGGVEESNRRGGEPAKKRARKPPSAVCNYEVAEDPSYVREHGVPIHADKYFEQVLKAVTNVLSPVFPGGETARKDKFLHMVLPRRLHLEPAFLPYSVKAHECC

[2] = system: HFF; experiment: Antiviral activity against human cytomegalovirus (Davis strain) grown on human foreskin fibroblast cells determined by reduction in plaque formation upon incubation at 37 degrees C with the compound dissolved in DMSO; assay type: functional, cell-based

SMILES: O=C(NCc1ccc(Cl)cc1)c1cnc2sc(CCCO)cc2c1O
pIC50 [2]: < 4.70

SMILES: CCN(CC)CCn1cc(C(=O)NCc2ccc(Cl)cc2)c(=O)c2cc(CCCO)sc21
pIC50 [2]: 6.05

SMILES: CCn1cc(C(=O)NCc2ccc(Cl)cc2)c(=O)c2cc(C#CCO)sc21
pIC50 [2]: 5.77

SMILES: CCn1cc(C(=O)NCc2ccc(Cl)cc2)c(=O)c2cc(CCCO)sc21
pIC50 [2]: 5.64

SMILES: Cn1cc(C(=O)NCc2ccc(Cl)cc2)c(=O)c2cc(C#CCO)sc21
pIC50 [2]: 5.85

SMILES: O=C(NCc1ccc(Cl)cc1)c1cnc2sc(C#CCO)cc2c1O
pIC50 [1]: 5.57 | pIC50 [2]: < 4.70

SMILES: CC(C)n1cc(C(=O)NCc2ccc(Cl)cc2)c(=O)c2cc(CCCO)sc21
pIC50 [2]: 5.89

SMILES: CC(C)n1cc(C(=O)NCc2ccc(Cl)cc2)c(=O)c2cc(C#CCO)sc21
pIC50 [2]: 5.57

SMILES: Cn1cc(C(=O)NCc2ccc(Cl)cc2)c(=O)c2cc(CCCCCO)sc21
pIC50 [1]: 5.01

Further lines, with some results ahead:

pIC50 [1]: 5.40
SMILES: Cn1cc(C(=O)NCc2ccc(Cl)cc2)c(=O)c2cc(CCO)sc21

pIC50 [1]: 5.02
SMILES: Cn1cc(C(=O)NCc2ccc(Cl)cc2)c(=O)c2cc(C#CCCO)sc21

pIC50 [1]: 4.66
SMILES: Cn1cc(C(=O)NCc2ccc(Cl)cc2)c(=O)c2cc(C#CCCCO)sc21

pIC50 [1]: 5.96
SMILES: O=C(NCc1ccc(Cl)cc1)c1cn(CCO)c2sc(C#CCO)cc2c1=O
pIC50 [2]: 5.64

pIC50 [1]: 6.12
SMILES: O=C(NCc1ccc(Cl)cc1)c1cn(CCO)c2sc(CCCO)cc2c1=O
pIC50 [2]: 5.74

pIC50 [1]: 6.37
SMILES: Cn1cc(C(=O)NCc2ccc(Cl)cc2)c(=O)c2cc(CCCCO)sc21

pIC50 [1]: 5.74
SMILES: CCN(CC)CCn1cc(C(=O)NCc2ccc(Cl)cc2)c(=O)c2cc(C#CCO)sc21
pIC50 [2]: 5.42
